Results on 1 molecule are retold here after paper PMC12621367, “Salvianolic acid C inhibits methane emissions in dairy cows by targeting MCR and reshaping the rumen microbial community” (Journal of Animal Science and Biotechnology, 2025).

This experiment addresses T1, Methyl-coenzyme M reductase (MCR).
T1 construct: gene mcrA; with McrB and McrG (β and γ subunits)
The experiment can be described thus: MCR activity inhibition with a microbial MCR ELISA kit, dose-response, OD […] nm. It is filed as biochemical, Methanothermobacter marburgensis.

Consider `O=C(/C=C/c1ccc(O)c2oc(-c3ccc(O)c(O)c3)cc12)O[C@H](Cc1ccc(O)c(O)c1)C(=O)O` [SAC, Salvianolic acid C], for which the IC50 stood at 692 µM.
